In article PMC3885398, “Evaluation of the Antitumor Effects of BPR1J-340, a Potent and Selective FLT3 Inhibitor, Alone or in Combination with an HDAC Inhibitor, Vorinostat, in AML Cancer” (PLoS ONE, 2014):
Values joined by “and” are separate entries in the source; they are usually repeats but may differ in a detail not shown here. Identical values can stand only once.

Columns and labels:
[1] = Pharmacokinetic analysis in rats; assay type: in vivo, Sprague-Dawley rats
Procedure: The uses of animals were approved by The Institutional Care and Use Committee of the National Health Research Institutes. Briefly, male Sprague-Dawley rats weighing 300–400 g each were obtained from BioLASCO, Taiwan Co., Ltd., Ilan, Taiwan. One day prior dosing, rats were surgically prepared with a jugular-vein cannula and fasted overnight (∼18–20 hr). Water was available ad libitum. Food was provided at 4 hours after dosing. Single 1.5 mg/kg intravenous dose of BPR1J-340, as a PEG400/water (80/20, v/v) solution, was separately administered to groups of 3 rats each via the jugular-vein cannula. At 0 (prior to dosing), 2, 5, 15 and 30 min. and at 1, 2, 4, 6, 8 and 24 hr after dosing, a blood sample was collected. Plasma was separated from the blood by centrifugation (14,000 g for 15 min at 4°C in a Beckman Model AllegraTM 6R centrifuge) and stored in a freezer (−20°C) until analysis. All plasma samples were analyzed by LC-MS/MS. Plasma concentration data were analyzed with non-compartmental method for pharmacokinetic determination.

[2] = target: T1, FLT1 (VEGFR1) (Homo sapiens, UniProt P17948); test: VEGFR1 Kinase-Glo kinase assay; assay type: biochemical
T1 construct: VEGFR1 (residues R781-I1338); made in house
Procedure: The FLT3 inhibitors, BPR1J-340 and AC220, were synthesized by our laboratory. The histone deacetylase inhibitor vorinostat (SAHA) was purchased from SelleckBio (Houston, TX, USA). All inhibitors were dissolved in dimethylsulfoxide (DMSO) at a stock concentration of 10 mM. The anti-FLT3 (sc-480, Santa Cruz Biotechnology, Santa Cruz, CA, USA), anti-pFLT3-Tyr591 (#3461, Cell Signaling Technology, Beverly, MA, USA) anti-STAT5 (#9363, Cell Signaling Technology), anti-pSTAT5–Tyr694 (#9351, Cell Signaling Technology), anti-cleaved poly ADP-ribose polymerase (PARP) (#9542, Cell Signaling Technology), anti-Mcl-1 (#4572, Cell Signaling Technology), anti-caspase 3 (#9662, Cell Signaling Technology) and anti-β-actin (Gtx110546, GeneTex, Irvine, CA, USA) antibodies were purchased for Western blotting analysis. The preparation of recombinant proteins, FLT3 (residues Y567-S993), VEGFR1 (residues R781-I1338) and VEGFR2 (residues V789-V1356), for biochemical kinase assay was described previously. The VEGFR3 (residues M800-Y1363) proteins were purchased from Upstate (Billerica, MA, USA).
The FLT3 and VEGFR1/2 Kinase-Glo kinase assays were performed as reported by our earlier study. […] The kinase inhibition profiling and inhibitory activity of FLT3-D835Y, CSF1R, and TRKA were determined by Invitrogen SelectScreen® kinase profiling service (Carlsbad, California, USA).

T1 sequence (P17948 781-1338): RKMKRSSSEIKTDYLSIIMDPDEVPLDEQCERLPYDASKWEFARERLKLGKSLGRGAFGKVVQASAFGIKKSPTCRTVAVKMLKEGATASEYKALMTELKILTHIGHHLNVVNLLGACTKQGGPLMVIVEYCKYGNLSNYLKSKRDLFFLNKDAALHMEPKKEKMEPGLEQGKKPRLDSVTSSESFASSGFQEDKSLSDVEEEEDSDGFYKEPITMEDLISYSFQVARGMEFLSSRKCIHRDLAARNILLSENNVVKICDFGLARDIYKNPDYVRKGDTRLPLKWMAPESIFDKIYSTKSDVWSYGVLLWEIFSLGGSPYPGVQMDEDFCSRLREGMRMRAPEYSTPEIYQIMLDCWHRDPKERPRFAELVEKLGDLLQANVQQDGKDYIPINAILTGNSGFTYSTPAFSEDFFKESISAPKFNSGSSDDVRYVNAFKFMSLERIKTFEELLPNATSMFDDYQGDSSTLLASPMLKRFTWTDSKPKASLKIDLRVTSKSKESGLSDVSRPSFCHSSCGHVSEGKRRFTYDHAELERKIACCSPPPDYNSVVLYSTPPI

## CCc1cc(NC(=O)NCc2ccc(-c3cc(NC(=O)c4ccc(CN5CCN(C)CC5)cc4)[nH]n3)cc2)no1 [BPR1J-340, N1-(3-4-[([(5-ethyl-3-isoxazolyl)amino]carbonylamino)methyl]phenyl-1H-5-pyrazolyl)-4-[(4-methylpiperazino)methyl]benzamide]
[1]; Rat IV 1.5 mg/kg, at 2 min after dosing, 1.5 mg/kg
  maximum plasma concentration: 7.9 µM and 4,296 ng/mL
[1]; Rat IV 1.5 mg/kg, for 6 hours
  plasma concentration maintained for 6 hours: exceeded 80 ng/mL
[1]; Rat IV, dose 1.5 mg/kg, listed as BRP1J-340, 1.5 mg/kg
  T1/2: 8.8 ± 0.6 h
[1]; Rat, single 1.5 mg/kg
  maximum achievable plasma concentration above the IC50 for FLT3-ITD inhibition: more than 272 fold
[1]; male, Sprague-Dawley, plasma, Rat IV 1.5 mg/kg, 24 hour after dosing, read-out: plasma concentration C24 hour
  concentration at 24 h: 9.9 ng/mL and 18 nM
[1]; male, Sprague-Dawley, plasma, Rat IV, dose 1.5 mg/kg
  clearance: 20.4 ± 5.2 mL/min/kg
[1]; male, Sprague-Dawley, plasma, Rat IV, dose 1.5 mg/kg, read-out: AUC(0–24)
  AUC(0-t): 1130 ± 260 ng·h/mL
[1]; male, Sprague-Dawley, plasma, Rat IV, dose 1.5 mg/kg, read-out: Vss
  Vd: 10.3 ± 2.5 L/kg
[1]; male, Sprague-Dawley, rat, plasma, iv, 1.5 mg/kg, Rat IV
  half-life: ~8.8 h
[2]
  IC50: 164 ± 24 nM
